Test results: a flash point compilation (Sun et al. 2020)

Structure (SMILES) | flash point
CCCCCCC#N [heptanenitrile] | 58 °C
ICc1ccccc1 [benzyliodide] | 97 °C
C[C@@H]1CC(=O)C[C@H]1C (relative stereo) [trans-3,4-dimethylcyclopentanone] | 41 °C
CCCC(=O)OC(C)C [isopropylbutanoate] | 24 °C
CCCCCCCCCCN [1-decanamine] | 85 °C
C1=CC2CCC1C2 [2-norbornene] | -14 °C
CCCCCCCCCCC(C)O (stereo not given) [2-dodecanol] | 113 °C
C#CCCCCCCC [1-nonyne] | 33 °C
CC(C)N [isopropylamine] | -32 °C
CC(C)(C)O [tert-butylalcohol] | 11 °C
CCCC(C)(C)C [2,2-dimethylpentane] | -23 °C
CCc1ccc(C)cc1C [1-ethyl-2,4-dimethylbenzene] | 57 °C
CC(C)(C)Nc1ccccc1 [N-tert-butylaniline] | 88 °C
CCc1ccc(C)cc1 [p-ethyltoluene] | 36 °C
C1CCCC1 [cyclopentane] | -37 °C
CC#CCC [2-pentyne] | -30 °C
C=C(C)CCCC [2-methyl-1-hexene] | -8 °C
CC(C)(C)c1ccco1 [2-tert-butylfuran] | 7 °C
CCC(C)C [2-methylbutane] | -51 °C
CC(C)N(C=O)C(C)C [N,N-diisopropylformamide] | 75 °C
O=[N+]([O-])C1CCCC1 [nitrocyclopentane] | 67 °C
CCCS [1-propanethiol] | -14 °C
BrC1CCCC1 [bromocyclopentane] | 35 °C
N#CCc1ccccc1 [benzylcyanide] | 101 °C
CCCC[N+](=O)[O-] [1-nitrobutane] | 47 °C

Structure (SMILES) | flash point
CCCc1ccccc1N [2-propylaniline] | 97 °C
CC1CC(C)(C)CC1=O (stereo not given) [2,4,4-trimethylcyclopentanone] | 43 °C
OCCOCCO [diethyleneglycol] | 124 °C
Cc1cc(C)c(C)c(C)c1 [1,2,3,5-tetramethylbenzene] | 63 °C
CCN(C)CC [N-ethyl-N-methylethanamine] | -23 °C
CCN(CC)c1ccccc1 [N,N-diethylaniline] | 88 °C
c1ccc(Oc2ccccc2)cc1 [diphenylether] | 115 °C
CCOC(C)=O [ethylacetate] | -4 °C
CSC [dimethylsulfide] | -36 °C
CCC(C)C(C)C(C)C (stereo not given) [2,3,4-trimethylhexane] | 15 °C
CC(=O)C(C)(C)C [pinacolone] | 5 °C
Cc1ccccn1 [2-picoline] | 26 °C
CCCCC(C)CC (stereo not given) [3-methylheptane] | 6 °C
CCCCSCCCC [dibutylsulfide] | 60 °C
C#CCCCCC#C [1,7-octadiyne] | 23 °C
CC=C(CC)CC [3-ethyl-2-pentene] | -6 °C
CCCCCCCCC(C)=O [2-decanone] | 85 °C
CCOCCO [2-ethoxyethanol] | 42 °C
CCCC(=O)OCc1ccccc1 [benzylbutanoate] | 107 °C
C=CCCCCCCCCCCCCCCCC [1-octadecene] | 154 °C
CC(C)C(=O)O [2-methylpropanoicacid] | 59 °C
CCC(C)(C)C(C)C [2,3,3-trimethylpentane] | 5 °C
CCCC(=O)OC(=O)CCC [butanoicanhydride] | 82 °C
C[C@@H]1CC(=O)[C@@H](C)C1 (relative stereo) [trans-2,4-dimethylcyclopentanone] | 42 °C
CCCCCCCC(=O)OC [methyloctanoate] | 69 °C

Structure (SMILES) | flash point
CCCCCCCC(C)C [2-methylnonane] | 38 °C
Cc1cccc(C)c1 [m-xylene] | 25 °C
N#CC1CC1 [cyclopropanecarbonitrile] | 32 °C
CCCC(=O)OCCC(C)C [isopentylbutanoate] | 59 °C
C1=CC2C=CC1C2 [2,5-norbornadiene] | -11 °C
CC1CCC(=O)CC1 [4-methylcyclohexanone] | 48 °C
CCCCCCC(O)CC (stereo not given) [3-nonanol] | 79 °C
CCCCNc1ccccc1 [N-butylaniline] | 107 °C
CC(C)(C)C(C)(C)C [2,2,3,3-tetramethylbutane] | -0 °C
CCCC(C)C(C)(C)C (stereo not given) [2,2,3-trimethylhexane] | 15 °C
CC(C)CCC(C)C [2,5-dimethylhexane] | -2 °C
CCCCCCCc1ccccc1 [heptylbenzene] | 95 °C
IC1CCCC1 [iodocyclopentane] | 52 °C
CCCC(C)CC (stereo not given) [3-methylhexane] | -15 °C
Cc1ccccc1Cl [2-chlorotoluene] | 47 °C
C=CC(C)CC (stereo not given) [3-methyl-1-pentene] | -33 °C
CC(O)CO (stereo not given) [1,2-propanediol] | 99 °C
OCC1CCCC1 [cyclopentylmethanol] | 62 °C
CCC(C)(C)OC [methyltert-pentylether] | -7 °C
CC(=O)CC(C)C [4-methyl-2-pentanone] | 14 °C
C[C@H]1CC[C@H](O)CC1 [trans-4-methylcyclohexanol] | 70 °C
Cc1cc(C)cc(F)c1 [1-fluoro-3,5-dimethylbenzene] | 35 °C
CC1CCCCCCC1=O (stereo not given) [2-methylcyclooctanone] | 71 °C
CCCC(C)[N+](=O)[O-] (stereo not given) [2-nitropentane] | 46 °C
CC(C)C1CCCCC1 [isopropylcyclohexane] | 35 °C

Structure (SMILES) | flash point
CCCCC1CCCC1=O (stereo not given) [2-butylcyclopentanone] | 68 °C
CN(C)CCO [2-dimethylaminoethanol] | 41 °C
CC(C)C(C)C(C)(C)C (stereo not given) [2,2,3,4-tetramethylpentane] | 11 °C
C=COCC(C)C [isobutylvinylether] | -9 °C
CCC(=O)Cc1ccccc1 [1-phenyl-2-butanone] | 91 °C
OCc1ccccc1 [benzylalcohol] | 93 °C
C=CCO [allylalcohol] | 22 °C
CCCC#CCCCC [4-nonyne] | 35 °C
CC(C)c1ccccc1N [2-isopropylaniline] | 95 °C
N#CCCCCC#N [1,4-dicyanobutane] | 159 °C
CCCC(CC)CC [3-ethylhexane] | 5 °C
CC(Cl)CCCl (stereo not given) [1,3-dichlorobutane] | 31 °C
CC(C)c1ccccc1O [2-isopropylphenol] | 89 °C
CCCNCCO [(2-hydroxyethyl)propylamine] | 78 °C
CCCCCCCCCOC=O [nonylformate] | 88 °C
C=CC=O [acrolein] | -19 °C
CCCCCCBr [1-bromohexane] | 47 °C
C=CC1CCCCC1 [vinylcyclohexane] | 21 °C
CCC(C)OC(C)CC (stereo not given) [di-sec-butylether] | 15 °C
CCCOC(=O)CCC [propylbutanoate] | 35 °C
CCCCc1ccccc1 [butylbenzene] | 50 °C
CCCC(C)Cl (stereo not given) [2-chloropentane] | 1 °C
CC(C)CCCO [4-methyl-1-pentanol] | 51 °C
CCCCCCCl [1-chlorohexane] | 26 °C
O=C1CCCC1C1CCCC1 (stereo not given) [2-cyclopentylcyclopentanone] | 90 °C

Structure (SMILES) | flash point
C=Cc1ccc(C)cc1 [4-methylstyrene] | 46 °C
C/C=C/CC [trans-2-pentene] | -45 °C
CCCC(C)C(C)CC (stereo not given) [3,4-dimethylheptane] | 15 °C
CCCCC(=O)CCCC [5-nonanone] | 60 °C
CC(C)(C)SSC(C)(C)C [di-tert-butyldisulfide] | 67 °C
C=CCCBr [4-bromo-1-butene] | 9 °C
Cc1cccc(Br)c1 [3-bromotoluene] | 75 °C
CCC1CCCCC1=O (stereo not given) [2-ethylcyclohexanone] | 59 °C
CCC(C)CC(CC)CC (stereo not given) [3-ethyl-5-methylheptane] | 31 °C
Cc1ccccc1F [2-fluorotoluene] | 12 °C
CC(=O)OCCC(C)C [isopentylacetate] | 36 °C
CCCCCC(C)CCC (stereo not given) [4-methylnonane] | 38 °C
SC1CCCC1 [cyclopentanethiol] | 25 °C
CCCC#CCCCCC [4-decyne] | 52 °C
COC1C=CC(OC)O1 (stereo not given) [2,5-dimethoxy-2,5-dihydrofuran] | 47 °C
CCN1CCCCC1 [1-ethylpiperidine] | 18 °C
CC(C)C=O [2-methylpropanal] | -19 °C
C=C(Cl)Cl [1,1-dichloroethene] | -25 °C
CC1(C)CCCC1 [1,1-dimethylcyclopentane] | -16 °C
C=CC(=O)O [acrylicacid] | 54 °C
COC(C)=O [methylacetate] | -13 °C
CCCCCCC(C)c1ccccc1 (stereo not given) [(1-methylheptyl)benzene] | 100 °C
CCCCCCCCCC(C)O (stereo not given) [2-undecanol] | 107 °C
C=C(C)C(=O)OCCC [propylmethacrylate] | 35 °C
Cc1ccc(C)cc1 [p-xylene] | 25 °C
